In PubChem BioAssay (NCI):
Several values for one entry are separate records, joined by “and”; a condition that tells them apart may be missing. Equal values may be shown once.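 Compound exposure: 48 hours, 5 concentrations, 96-well plates. At the GI50, growth is halved. TGI marks complete inhibition of growth.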

Tests used:
Test in all cases: NCI tumour cell line growth inhibition, 48 h; in the data active means GI50 below about 0.43 µM; inactive means the rest
786-0 renal = tested on: 786-0 renal
A549 NSCLC = tested on: A549 NSCLC
ACHN renal = tested on: ACHN renal
BT-549 breast = tested on: BT-549 breast
CAKI-1 renal = tested on: CAKI-1 renal
CCRF-CEM leukemia = tested on: CCRF-CEM leukemia
COLO 205 colon = tested on: COLO 205 colon
DU-145 prostate = tested on: DU-145 prostate
EKVX NSCLC = tested on: EKVX NSCLC
HCC-2998 colon = tested on: HCC-2998 colon
HCT-116 colon = tested on: HCT-116 colon
HCT-15 colon = tested on: HCT-15 colon
HL-60(TB) leukemia = tested on: HL-60(TB) leukemia
HOP-62 NSCLC = tested on: HOP-62 NSCLC
HOP-92 NSCLC = tested on: HOP-92 NSCLC
HS 578T breast = tested on: HS 578T breast
HT29 colon = tested on: HT29 colon
K-562 leukemia = tested on: K-562 leukemia
KM12 colon = tested on: KM12 colon
LOX IMVI melanoma = tested on: LOX IMVI melanoma
M14 melanoma = tested on: M14 melanoma
MALME-3M melanoma = tested on: MALME-3M melanoma
MCF7 breast = tested on: MCF7 breast
MDA-MB-231 breast = tested on: MDA-MB-231 breast
MDA-MB-435 = tested on: MDA-MB-435
MDA-N = tested on: MDA-N
MOLT-4 leukemia = tested on: MOLT-4 leukemia
NCI-H226 lung = tested on: NCI-H226 lung
NCI-H23 lung = tested on: NCI-H23 lung
NCI-H460 lung = tested on: NCI-H460 lung
NCI/ADR-RES ovarian = tested on: NCI/ADR-RES ovarian
OVCAR-3 ovarian = tested on: OVCAR-3 ovarian
OVCAR-4 ovarian = tested on: OVCAR-4 ovarian
OVCAR-5 ovarian = tested on: OVCAR-5 ovarian
OVCAR-8 ovarian = tested on: OVCAR-8 ovarian
PC-3 prostate = tested on: PC-3 prostate
RPMI-8226 leukemia = tested on: RPMI-8226 leukemia
RXF 393 renal = tested on: RXF 393 renal
SF-268 CNS = tested on: SF-268 CNS
SF-295 CNS = tested on: SF-295 CNS
SF-539 CNS = tested on: SF-539 CNS
SK-MEL-2 melanoma = tested on: SK-MEL-2 melanoma
SK-MEL-28 melanoma = tested on: SK-MEL-28 melanoma
SK-MEL-5 melanoma = tested on: SK-MEL-5 melanoma
SK-OV-3 ovarian = tested on: SK-OV-3 ovarian
SN12C renal = tested on: SN12C renal
SNB-19 CNS = tested on: SNB-19 CNS
SNB-75 CNS = tested on: SNB-75 CNS
SW-620 colon = tested on: SW-620 colon
T-47D breast = tested on: T-47D breast
TK-10 renal = tested on: TK-10 renal
U251 CNS = tested on: U251 CNS
UACC-257 melanoma = tested on: UACC-257 melanoma
UACC-62 melanoma = tested on: UACC-62 melanoma
UO-31 renal = tested on: UO-31 renal
A498 renal = tested on: A498 renal
IGROV1 ovarian = tested on: IGROV1 ovarian
NCI-H522 lung = tested on: NCI-H522 lung
SR leukemia = tested on: SR leukemia

CCOC(=O)C(C)c1nc2cc(F)c(F)cc2[nH]c1=O (centres undefined)
> 100 µM: TGI (786-0 renal) | TGI (A549 NSCLC) | TGI (ACHN renal) | TGI (BT-549 breast) | TGI (CAKI-1 renal) | TGI (CCRF-CEM leukemia) | TGI (COLO 205 colon) | TGI (DU-145 prostate) | TGI (EKVX NSCLC) | TGI (HCC-2998 colon) | TGI (HCT-116 colon) | TGI (HCT-15 colon) | TGI (HL-60(TB) leukemia) | TGI (HOP-62 NSCLC) | TGI (HOP-92 NSCLC) | TGI (HS 578T breast) | TGI (HT29 colon) | TGI (K-562 leukemia) | TGI (KM12 colon) | TGI (LOX IMVI melanoma) | TGI (M14 melanoma) | TGI (MALME-3M melanoma) | TGI (MCF7 breast) | TGI (MDA-MB-231 breast) | TGI (MDA-MB-435) | TGI (MDA-N) | TGI (MOLT-4 leukemia) | TGI (NCI-H226 lung) | TGI (NCI-H23 lung) | TGI (NCI-H460 lung) | TGI (NCI/ADR-RES ovarian) | TGI (OVCAR-3 ovarian) | TGI (OVCAR-4 ovarian) | TGI (OVCAR-5 ovarian) | TGI (OVCAR-8 ovarian) | TGI (PC-3 prostate) | TGI (RPMI-8226 leukemia) | TGI (RXF 393 renal) | TGI (SF-268 CNS) | TGI (SF-295 CNS) | TGI (SF-539 CNS) | TGI (SK-MEL-2 melanoma) | TGI (SK-MEL-28 melanoma) | TGI (SK-MEL-5 melanoma) | TGI (SK-OV-3 ovarian) | TGI (SN12C renal) | TGI (SNB-19 CNS) | TGI (SNB-75 CNS) | TGI (SW-620 colon) | TGI (T-47D breast) | TGI (TK-10 renal) | TGI (U251 CNS) | TGI (UACC-257 melanoma) | TGI (UACC-62 melanoma) | TGI (UO-31 renal)

CC1CC(=O)N(N(C)C)C2(C#N)C(=O)N=C(N)C12C#N (centres undefined)
99.1 µM: TGI (RPMI-8226 leukemia)
> 100 µM: TGI (786-0 renal) | TGI (A498 renal) | TGI (A549 NSCLC) | TGI (ACHN renal) | TGI (COLO 205 colon) | TGI (DU-145 prostate) | TGI (EKVX NSCLC) | TGI (HCC-2998 colon) | TGI (HCT-116 colon) | TGI (HCT-15 colon) | TGI (HOP-62 NSCLC) | TGI (HOP-92 NSCLC) | TGI (HS 578T breast) | TGI (HT29 colon) | TGI (IGROV1 ovarian) | TGI (KM12 colon) | TGI (LOX IMVI melanoma) | TGI (M14 melanoma) | TGI (MALME-3M melanoma) | TGI (MCF7 breast) | TGI (MDA-MB-231 breast) | TGI (MDA-MB-435) | TGI (MDA-N) | TGI (MOLT-4 leukemia) | TGI (NCI-H23 lung) | TGI (NCI-H522 lung) | TGI (NCI/ADR-RES ovarian) | TGI (OVCAR-4 ovarian) | TGI (OVCAR-5 ovarian) | TGI (OVCAR-8 ovarian) | TGI (PC-3 prostate) | TGI (RXF 393 renal) | TGI (SF-268 CNS) | TGI (SF-295 CNS) | TGI (SF-539 CNS) | TGI (SK-MEL-2 melanoma) | TGI (SK-MEL-5 melanoma) | TGI (SK-OV-3 ovarian) | TGI (SN12C renal) | TGI (SNB-19 CNS) | TGI (SNB-75 CNS) | TGI (SR leukemia) | TGI (SW-620 colon) | TGI (T-47D breast) | TGI (TK-10 renal) | TGI (U251 CNS) | TGI (UACC-257 melanoma) | TGI (UACC-62 melanoma) | TGI (UO-31 renal)
67.5 µM: TGI (CCRF-CEM leukemia)
51.7 µM: TGI (HL-60(TB) leukemia)
59.6 µM: TGI (K-562 leukemia)
48.3 µM: TGI (CAKI-1 renal)

CCCCCCCCCCCC/C=C\CC[C@@H](O)[C@H](O)CC[C@H](O)[C@@H]1CC[C@@H](CCCCCCCC2=C[C@H](C)OC2=O)O1
28.1 µM: TGI (IGROV1 ovarian)
33.8 µM: TGI (HCT-15 colon)
23.4 µM: TGI (MDA-N)
31.2 µM: TGI (MALME-3M melanoma)
36.6 µM: TGI (A498 renal)
34.6 µM: TGI (MCF7 breast)
6.64 µM and 18.7 µM: TGI (OVCAR-3 ovarian)
34.3 µM: TGI (NCI-H226 lung)
27.8 µM: TGI (NCI/ADR-RES ovarian)
29.1 µM: TGI (SNB-75 CNS)
9.26 µM and 41.9 µM: TGI (UO-31 renal)
28.6 µM: TGI (TK-10 renal)
35.7 µM: TGI (CAKI-1 renal)
16.5 µM: TGI (PC-3 prostate)
29.9 µM: TGI (NCI-H23 lung)
4.11 µM and 4.85 µM: TGI (SK-MEL-5 melanoma)
21.5 µM: TGI (T-47D breast)
35.3 µM: TGI (MDA-MB-231 breast)
inactive: GI50 (786-0 renal) 15.7 µM | GI50 (A498 renal) 16.4 µM | GI50 (A549 NSCLC) 3.36 µM | GI50 (ACHN renal) 4.35 µM | GI50 (BT-549 breast) 12.8 µM | GI50 (CCRF-CEM leukemia) 6.82 µM | GI50 (COLO 205 colon) 7.21 µM | GI50 (EKVX NSCLC) 11.6 µM | GI50 (HCT-15 colon) 8.86 µM | GI50 (HOP-92 NSCLC) 17.4 µM | GI50 (IGROV1 ovarian) 7.09 µM | GI50 (KM12 colon) 12.9 µM | GI50 (LOX IMVI melanoma) 3.55 µM | GI50 (MCF7 breast) 4.76 µM | GI50 (MDA-MB-231 breast) 12.4 µM | GI50 (MDA-MB-435) 11.4 µM | GI50 (MDA-N) 6.76 µM | GI50 (MOLT-4 leukemia) 1.72 µM | GI50 (NCI-H226 lung) 13.3 µM | GI50 (NCI-H23 lung) 2.19 µM | GI50 (NCI/ADR-RES ovarian) 7.19 µM | GI50 (OVCAR-3 ovarian) 0.434 µM | GI50 (OVCAR-8 ovarian) 8.16 µM | GI50 (PC-3 prostate) 2.22 µM | GI50 (RPMI-8226 leukemia) 1.43 µM | GI50 (SF-268 CNS) 14.2 µM | GI50 (SK-MEL-2 melanoma) 12.6 µM | GI50 (SK-MEL-28 melanoma) 20.2 µM | GI50 (SN12C renal) 13 µM | GI50 (SNB-19 CNS) 9.85 µM | GI50 (SNB-75 CNS) 12.8 µM | GI50 (SW-620 colon) 23.4 µM | GI50 (T-47D breast) 2.85 µM | GI50 (TK-10 renal) 10 µM | GI50 (U251 CNS) 13.7 µM | GI50 (UACC-257 melanoma) 1.94 µM | GI50 (UO-31 renal) 12.4 µM
active: GI50 (HCT-116 colon) 0.231 µM | GI50 (SF-295 CNS) 0.291 µM | GI50 (SK-MEL-5 melanoma) 0.0198 µM
38 µM: TGI (OVCAR-8 ovarian) | TGI (SF-268 CNS)
30 µM: TGI (K-562 leukemia)
3.87 µM: TGI (RPMI-8226 leukemia)
8.69 µM and 55.2 µM: TGI (HOP-92 NSCLC)
31 µM: TGI (SN12C renal)
40.3 µM: TGI (786-0 renal)
15.5 µM: TGI (SF-295 CNS)
6.56 µM: TGI (HL-60(TB) leukemia)
37.8 µM: TGI (RXF 393 renal)
8.36 µM and 22.9 µM: TGI (COLO 205 colon)
25.9 µM: TGI (NCI-H522 lung)
37.1 µM: TGI (HCC-2998 colon)
28.9 µM: TGI (EKVX NSCLC)
38.4 µM: TGI (OVCAR-5 ovarian)
56.3 µM: TGI (SK-MEL-28 melanoma)
26.8 µM: TGI (OVCAR-4 ovarian)
4.88 µM: TGI (MOLT-4 leukemia)
23 µM: TGI (A549 NSCLC)
4.71 µM and 26.3 µM: TGI (ACHN renal)
> 100 µM: TGI (CCRF-CEM leukemia) | TGI (SW-620 colon) | TGI (U251 CNS)
27.1 µM: TGI (HCT-116 colon)
33.4 µM: TGI (SK-MEL-2 melanoma)
26.6 µM: TGI (NCI-H460 lung)
6.45 µM: TGI (UACC-62 melanoma)
29.3 µM: TGI (SNB-19 CNS)
4.21 µM and 19.6 µM: TGI (UACC-257 melanoma)
4.84 µM and 32.3 µM: TGI (LOX IMVI melanoma)
46 µM: TGI (KM12 colon)
46.8 µM: TGI (M14 melanoma)
